Data as given in patent US20250230155A1 (Vanderbilt University, priority 2021, published 2025).

Biological target: T1, human mAChR M4 (Homo sapiens, UniProt P08173)
T1 construct: expressed in transfected cells
T1 sequence (P08173 1-479): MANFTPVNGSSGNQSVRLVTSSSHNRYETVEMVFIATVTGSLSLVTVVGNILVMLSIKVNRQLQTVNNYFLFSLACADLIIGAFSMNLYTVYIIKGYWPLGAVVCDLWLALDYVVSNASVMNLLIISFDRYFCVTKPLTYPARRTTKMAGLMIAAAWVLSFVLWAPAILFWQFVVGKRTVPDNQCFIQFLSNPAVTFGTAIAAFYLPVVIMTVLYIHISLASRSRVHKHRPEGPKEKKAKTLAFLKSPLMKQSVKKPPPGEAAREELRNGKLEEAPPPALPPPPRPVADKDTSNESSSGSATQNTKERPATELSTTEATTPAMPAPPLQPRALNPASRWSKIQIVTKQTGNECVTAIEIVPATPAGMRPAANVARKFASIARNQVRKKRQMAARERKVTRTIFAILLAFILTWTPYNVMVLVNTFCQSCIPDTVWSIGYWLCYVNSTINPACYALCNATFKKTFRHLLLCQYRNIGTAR
Assay: mAChR M4 cell-based functional assay (calcium mobilization, CHO-K1 hM4-Gqi5 cells)
Conditions: for Emax at 30 µM: CHO-K1, % ACh maximum at 30 μM, human M4; for EC50: positive allosteric modulator activity, increase in the EC20 acetylcholine response, CHO-K1 hM4-Gqi5 cells, read-out: Human M4 EC50
How it was run: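 CHO-K1 cells stably expressing human M4 with chimeric Gqi5, loaded with Fluo-4 AM; compounds given as 11-point 1:3 curves and calcium flux read on FDSS at 1 Hz. Acetylcholine EC20 added at 144 s, EC80 at 230 s; agonist, PAM (EC20 potentiation) and antagonist (EC80 inhibition) EC50/Emax from four-parameter fits.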

SMILES | Emax at 30 µM [%] | EC50 [µM]
Cc1nn(C)cc1-c1cnc2c(c1)CN(c1nc(N3CCCC3)nc(C)c1C)CC2 [compound 271, 3-(1,3-dimethyl-1H-pyrazol-4-yl)-6-(5,6-dimethyl-2-(pyrrolidin-1-yl)pyrimidin-4-yl)-5,6,7,8-tetrahydro-1,6-naphthyridine] | 78 | 0.214
Cc1cc(C#N)cnc1N1CCc2ncc(-c3ccc(C4CC4)nc3)cc2C1 [compound 186, 6-[3-(6-cyclopropyl-3-pyridyl)-7,8-dihydro-5H-1,6-naphthyridin-6-yl]-5-methyl-pyridine-3-carbonitrile] | 97 | 0.318
Clc1nc2c(c(N3CCc4ncc(N5CCOc6ncccc65)cc4C3)n1)COC2 [compound 283, 1-(6-(2-chloro-5,7-dihydrofuro[3,4-d]pyrimidin-4-yl)-5,6,7,8-tetrahydro-1,6-naphthyridin-3-yl)-2,3-dihydro-1H-pyrido[2,3-b][1,4]oxazine] | – | 0.368
Cc1c(C#N)nnc(N2CCc3ncc(C(F)(F)F)cc3C2)c1C [Example 303, 4,5-dimethyl-6-(3-(trifluoromethyl)-7,8-dihydro-1,6-naphthyridin-6(5H)-yl)pyridazine-3-carbonitrile] | 48 | 1.6
Cc1cc(C#N)cnc1N1CCc2ncc(-c3ccnc(C4CC4)c3)cc2C1 [Example 339, 6-(3-(2-cyclopropylpyridin-4-yl)-7,8-dihydro-1,6-naphthyridin-6(5H)-yl)-5-methylnicotinonitrile] | 90 | 0.277
Fc1ncccc1Nc1cnc2c(c1)CN(c1nc(Cl)nc3c1COC3)CC2 [compound 289, 6-(2-chloro-5,7-dihydrofuro[3,4-d]pyrimidin-4-yl)-N-(2-fluoropyridin-3-yl)-5,6,7,8-tetrahydro-1,6-naphthyridin-3-amine] | – | 0.918
Cc1nc(Cl)c(C)c(N2CCc3ncc(-c4ccc(F)nc4)cc3C2)n1 [compound 224, 6-(6-chloro-2,5-dimethylpyrimidin-4-yl)-3-(6-fluoropyridin-3-yl)-5,6,7,8-tetrahydro-1,6-naphthyridine] | 82 | 0.214
Cc1nc(Cl)c(C)c(N2Cc3cc(N4CCCn5nccc54)cnc3C(C)(C)C2)n1 [compound 250, 6-(6-chloro-2,5-dimethylpyrimidin-4-yl)-3-(6,7-dihydropyrazolo[1,5-a]pyrimidin-4(5H)-yl)-8,8-dimethyl-5,6,7,8-tetrahydro-1,6-naphthyridine] | 66 | 0.616
Cc1c(C(=O)NCc2ccncc2)nnc(N2CCc3ncc(C(F)(F)F)cc3C2)c1C [Example 467, 4,5-dimethyl-N-(pyridin-4-ylmethyl)-6-(3-(trifluoromethyl)-7,8-dihydro-1,6-naphthyridin-6(5H)-yl)pyridazine-3-carboxamide] | 98 | 0.129
Cc1c(Cl)nc(C2CC2)nc1N1CCc2ncc(Nc3cccc(F)c3F)cc2C1 [compound 91, 6-(6-chloro-2-cyclopropyl-5-methyl-pyrimidin-4-yl)-N-(2,3-difluorophenyl)-7,8-dihydro-5H-1,6-naphthyridin-3-amine] | 67 | 5.57
Cc1cc(C(=O)N(C)Cc2ccncc2)cnc1N1CCc2ncc(-c3cn(C)nc3C)cc2C1 [Example 454, 6-(3-(1,3-dimethyl-1/-pyrazol-4-yl)-7,8-dihydro-1,6-naphthyridin-6(5H)-yl)-N,5-dimethyl-N-(pyridin-4-ylmethyl)nicotinamide] | 60 | 3.91
Cc1cc(C(=O)N2CC(F)(F)C2)nnc1N1CCc2ncc(CC(F)(F)F)cc2C1 [Example 583, (3,3-difluoroazetidin-1-yl)(5-methyl-6-(3-(2,2,2-trifluoroethyl)-7,8-dihydro-1,6-naphthyridin-6(5H)-yl)pyridazin-3-yl)methanone] | 91 | 0.121
